Measured values reported in patent US20200147116A1, “Use of Paeoniflorin-6'-O-benzenesulfonate in treatment of Sjögren's syndrome” (NINGBO ZHIMING BIOTECHNOLOGY CO., LTD., priority 2017, published 2020).
Marks after values point to notes of the source that are not given here.

Columns and labels:
Format in all cases: in vivo
[1] = system: submaxillary glands in NOD mice; assay: Pathological grading of submaxillary glands in NOD mice; conditions: for Score: mice with submaxillary gland pathology Grade 0 / Score: mice with submaxillary gland pathology Grade I / Score: mice with submaxillary gland pathology Grade II / Score: mice with submaxillary gland pathology Grade III / Score: mice with submaxillary gland pathology Grade IV: NOD mice
Experimental: (§1) Mice were sacrificed after two weeks of administration, and then submaxillary glands of four mice of each group were removed and pathologically observed. At first, the submaxillary gland should be fixed in 10% buffered formalin for 24 h, followed by washing, dehydration and clearing, wax-filling, embedding, sectioning and finally H&E staining. […] Results were graded pathologically.
(§2) Note: The histological findings graded of submaxillary glands according to the Chisholm-Mason scale; grade 0, absence of lymphocytic infiltration; grade I, slight lymphocytic infiltration; grade II, moderate lymphocytic infiltration; grade III, one focus of lymphocytic infiltration per 4 mm^2 tissue; grade IV, more than one focus of lymphocytic infiltration per 4 mm^2 tissue (Note: One focus of lymphocytic infiltration has been defined as an aggregate of 50 or more lymphocytes gathered in the labial gland stroma per 4 mm^2 of tissue.

[2] = system: SS mice; assay: Organic indexes (spleen, submaxillary gland, thymus) in SS mice
Source text: 2 Sjögren's syndrome model mice: C57BL/6 female mice housed in a SPF environment with successful modeling (The animal model was made via repeated multi-point intracutaneous injection of submaxillary gland homogenate of homologous mice to tail and back of mice). The animal model was made via repeated multi-point intracutaneously injection of submaxillary gland homogenate of homologous mice to tail and back of mice, and the mice with successful modeling were randomly assigned to each group according to comprehensive conditions of mice. At the same time, the average weight and status of each group of mice should be as close as possible. Paeoniflorin-6′-O-benzenesulfonate, white crystalline powder, purity 98.5%, was dissolved in trace ethanol (75 mg of CP-25 was soluble in 40 μl of ethanol), and then sodium carboxymethylcellulose was added to formulate a suspension of CP-25. Corresponding dose gradient, low dose (17.5 mg/kg), medium dose (35 mg/kg) and high dose (70 mg/kg) of said pharmaceutical should be prepared before medication, stored in 4° C. refrigerator for use. High dose of said pharmaceutical should be incubated for half an hour before use.

[3] = system: spleen T lymphocytes; assay: Spleen T lymphocyte proliferation in NOD model mice (FIG. 12A)
Source text: FIG. 12 Effects of CP-25 on spleen T and B lymphocyte proliferation in NOD model mice.
A: T lymphocytes; B: B lymphocytes

[4] = system: submaxillary gland in SS mice; assay: Histopathological examination and grading of submaxillary gland in SS mice (H&E, Chisholm-Mason scale); conditions: for Score: mice with submaxillary gland pathology Grade 0 / Score: mice with submaxillary gland pathology Grade I / Score: mice with submaxillary gland pathology Grade II / Score: mice with submaxillary gland pathology Grade III / Score: mice with submaxillary gland pathology Grade IV: two weeks of administration, four mice of each group
Experimental: as §1, §2

[5] = system: spleen CD11c+ MHC-II+ DC; assay: Spleen CD11c+ MHC-II+ DC in SS model mice (FIG. 9)
Source text: FIG. 9 Effects of CP-25 on spleen CD11c^+ MHC-II^+ DC in SS model mice.

[6] = system: spleen CD4+ IL-17A+ T lymphocytes; assay: Spleen CD4+ IL-17A+ T lymphocytes in SS model mice (FIG. 4)
Source text: FIG. 4 Effects of CP-25 on spleen CD4^+ IL-17A^+ T lymphocytes in SS model mice.

C[C@@]12C[C@@]3(O)O[C@H](O1)C1(COC(=O)c4ccccc4)[C@@H]3CC12OC1OC(COS(=O)(=O)c2ccccc2)C(O)C(O)C1O (stereo partly shown) [CP-25, Paeoniflorin-6′-O-benzenesulfonate]
Score: mice with submaxillary gland pathology Grade 0 ([1]; 17.5 mg/kg): 0
Score: mice with submaxillary gland pathology Grade I ([1]; 17.5 mg/kg): 0
Score: mice with submaxillary gland pathology Grade II ([1]; 17.5 mg/kg): 0
Score: mice with submaxillary gland pathology Grade III ([1]; 17.5 mg/kg): 1
Score: mice with submaxillary gland pathology Grade IV ([1]; 17.5 mg/kg): 3
Score: mice with submaxillary gland pathology Grade 0 ([1]; 35 mg/kg): 0
Score: mice with submaxillary gland pathology Grade I ([1]; 35 mg/kg): 0
Score: mice with submaxillary gland pathology Grade II ([1]; 35 mg/kg): 0
Score: mice with submaxillary gland pathology Grade III ([1]; 35 mg/kg): 1
Score: mice with submaxillary gland pathology Grade IV ([1]; 35 mg/kg): 3
Score: mice with submaxillary gland pathology Grade 0 ([1]; 70 mg/kg): 0
Score: mice with submaxillary gland pathology Grade I ([1]; 70 mg/kg): 0
Score: mice with submaxillary gland pathology Grade II ([1]; 70 mg/kg): 0
Score: mice with submaxillary gland pathology Grade III ([1]; 70 mg/kg): 3
Score: mice with submaxillary gland pathology Grade IV ([1]; 70 mg/kg): 1 ^#
Pathological changes in submaxillary gland ([1]; NOD model mice, Example 6): apparently ameliorate the pathological changes
Spleen index ([2]; 17.5 mg/kg): 9.00 ± 1.61 mg/g
Submaxillary gland index ([2]; 17.5 mg/kg): 3.56 ± 0.62 mg/g
Thymus index ([2]; 17.5 mg/kg): 1.06 ± 0.31 mg/g
Spleen index ([2]; 35 mg/kg): 8.92 ± 1.33 mg/g
Submaxillary gland index ([2]; 35 mg/kg): 3.32 ± 0.66 mg/g
Thymus index ([2]; 35 mg/kg): 1.31 ± 0.42 mg/g
Spleen index ([2]; 70 mg/kg): 8.51 ± 1.42 mg/g
Submaxillary gland index ([2]; 70 mg/kg): 3.24 ± 0.57 mg/g
Thymus index ([2]; 70 mg/kg): 1.03 ± 0.44 mg/g
Increasing of submaxillary gland index (in words) ([2]; Example 2): significantly suppress the increasing
Spleen T lymphocyte proliferation [3]: significantly inhibit
Score: mice with submaxillary gland pathology Grade 0 ([4]; 17.5 mg/kg): 0
Score: mice with submaxillary gland pathology Grade I ([4]; 17.5 mg/kg): 0
Score: mice with submaxillary gland pathology Grade II ([4]; 17.5 mg/kg): 0
Score: mice with submaxillary gland pathology Grade III ([4]; 17.5 mg/kg): 1
Score: mice with submaxillary gland pathology Grade IV ([4]; 17.5 mg/kg): 3
Score: mice with submaxillary gland pathology Grade 0 ([4]; 35 mg/kg): 0
Score: mice with submaxillary gland pathology Grade I ([4]; 35 mg/kg): 0
Score: mice with submaxillary gland pathology Grade II ([4]; 35 mg/kg): 0
Score: mice with submaxillary gland pathology Grade III ([4]; 35 mg/kg): 1
Score: mice with submaxillary gland pathology Grade IV ([4]; 35 mg/kg): 3
Score: mice with submaxillary gland pathology Grade 0 ([4]; 70 mg/kg): 0
Score: mice with submaxillary gland pathology Grade I ([4]; 70 mg/kg): 0
Score: mice with submaxillary gland pathology Grade II ([4]; 70 mg/kg): 0
Score: mice with submaxillary gland pathology Grade III ([4]; 70 mg/kg): 3
Score: mice with submaxillary gland pathology Grade IV ([4]; 70 mg/kg): 1^#
Pathological changes in submaxillary gland ([4]; Example 3, dose not given): apparently ameliorate the pathological changes
Pathological changes in submaxillary glands (H&E staining score, rank-sum test) ([4]; high dose of CP-25): apparently ameliorate the pathological changes
Expression of surface molecular MHC-II+ on spleen CD11c+ DC [5]: significantly inhibit
Ratio of CD4+ IL-17A+ Th17 lymphocytes [6]: significantly inhibit
